Among the data in patent publication US7101881B2, “Tetrahydroquinolines” (Pfizer Inc, priority 2003, dated 2006) are melting point values, retold here.

Where a name gives a salt, the structure may show the parent alone.

With `CN1CCN(c2cccc3c2CN(C(=O)CC2CC2)CC3)CC1` (as salt: salt), the melting point – broadly, the temperature of the solid-liquid transition – was 66 °C. The molecule `CN1CCN(c2cccc3c2CN(C(=O)CCc2ccc(Cl)cc2)CC3)CC1` (as salt: salt) [Example 2, 3-(4-Chloro-phenyl)-1-[8-(4-methyl-piperazin-1-yl)-3,4-dihydro-1H-isoquinolin-2-yl]-propan-1-one] returned a melting point of 84 °C. As to `CN1CCN(c2cccc3c2CN(C(=O)Cc2ccc(Cl)cc2Cl)CC3)CC1` (as salt: salt) [Example 6, 2-(2,4-Dichloro-phenyl)-1-[8-(4-methyl-piperazin-1-yl)-3,4-dihydro-1H-isoquinolin-2-yl]-ethanone], the melting point came to 85 °C.

The molecule `CN1CCN(c2cccc3c2CN(C(=O)Cc2ccccc2Cl)CC3)CC1` (as salt: salt) [Example 7, 2-(2-Chloro-phenyl)-1-[8-(4-methyl-piperazin-1-yl)-3,4-dihydro-1H-isoquinolin-2-yl]-ethanone] showed a melting point of 54 °C. Under `CN1CCN(c2cccc3c2CN(C(=O)c2ccc(N4CCOCC4)cc2)CC3)CC1` [Example 11, [8-(4-Methyl-piperazin-1-yl)-3,4-dihydro-1H-isoquinolin-2-yl]-(4-morpholin-4-yl-phenyl)-methanone] stands 129 °C (dec.); under `CN1CCN(c2cccc3c2CN(C(=O)Cc2ccc(Cl)c(Cl)c2)CC3)CC1` [Example 12, 2-(3,4-Dichloro-phenyl)-1-[8-(4-methyl-piperazin-1-yl)-3,4-dihydro-1H-isoquinolin-2-yl]-ethanone], 66 °C; under `CN1CCN(c2cccc3c2CN(C(=O)Cc2cccnc2)CC3)CC1` (as salt: salt) [Example 9, 1-[8-(4-Methyl-piperazin-1-yl)-3,4-dihydro-1H-isoquinolin-2-yl]-2-pyridin-3-yl-ethanone], 56 °C. Under `COc1ccc(CC(=O)N2CCc3cccc(N4CCN(C)CC4)c3C2)cc1` (as salt: salt) [Example 3, 2-(4-Methoxy-phenyl)-1-[8-(4-methyl-piperazin-1-yl)-3,4-dihydro-1H-isoquinolin-2-yl]-ethanone] stands 63 °C; under `CN1CCN(c2cccc3c2CN(C(=O)c2ccc(Cl)cc2)CC3)CC1` (as salt: salt) [Example 10, (4-Chloro-phenyl)-[8-(4-methyl-piperazin-1-yl)-3,4-dihydro-1H-isoquinolin-2-yl]-methanone], 52 °C.
